In BindingDB's records for patent US11826435 (University of Saskatchewan, 2023) one finds IC50 and Ki data, which are given here for two molecules.

This experiment concerns the target T1, Lysosomal acid glucosylceramidase (Homo sapiens, UniProt P04062).
T1 sequence (P04062 whole entry): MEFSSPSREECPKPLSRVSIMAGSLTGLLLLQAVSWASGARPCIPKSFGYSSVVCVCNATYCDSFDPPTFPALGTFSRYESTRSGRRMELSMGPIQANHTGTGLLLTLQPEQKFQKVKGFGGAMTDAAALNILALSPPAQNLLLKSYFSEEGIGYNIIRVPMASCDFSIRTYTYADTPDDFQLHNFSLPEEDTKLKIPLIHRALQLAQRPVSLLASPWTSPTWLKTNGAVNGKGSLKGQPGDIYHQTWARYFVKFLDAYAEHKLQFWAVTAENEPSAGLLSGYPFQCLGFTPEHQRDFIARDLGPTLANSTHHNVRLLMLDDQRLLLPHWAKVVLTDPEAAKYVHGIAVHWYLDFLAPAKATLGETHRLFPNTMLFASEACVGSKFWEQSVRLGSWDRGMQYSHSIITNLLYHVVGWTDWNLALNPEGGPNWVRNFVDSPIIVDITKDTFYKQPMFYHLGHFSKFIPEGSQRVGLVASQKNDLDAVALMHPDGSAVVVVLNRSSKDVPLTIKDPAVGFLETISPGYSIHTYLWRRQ
Briefly: Enzyme Kinetics - Measuring Inactivation Rates of Inhibitors. How it is done: Inactivation solutions contained a final concentration of 16.55 nM of Cerezyme (Recombinant GCase) in 200 μL of Reaction Buffer (50 mM acetate, 0.2% v/v Triton X-100, 0.3% w/v sodium taurocholate, pH 5.5). The Cerezyme was collected from leftover patient vials and had approximately 8275 nM in the vial. […] Once the inhibitor was added this was considered time=0 minutes. Meanwhile a 96 well plate inside a Biotek Synergy 4 hybrid multi-mode reader at 37 C. was being incubated. In the wells of the plate were waiting a high concentration ([…]) of 2,4-DNP-β-Glc substrate in 180 μL of Reaction Buffer. As the inhibitor inactivation was occurring, 20 μL aliquots were taken from the inactivation solutions and diluted on the plate containing the substrate bringing the final concentration of the substrate to […]. Once all the aliquots were added the solution in the wells was measured for absorbance at 400 nm for 8 minutes. At this time the measurements were paused and the next set of aliquots were taken to see how residual enzyme activity changes over time.

On to `O=[N+]([O-])c1ccc(OC2O[C@H](CO)[C@@H](O)[C@H](O)[C@H]2F)c([N+](=O)[O-])c1` (some centres not stated) [US11826435, Compound 1.1], for which the IC50 is over 1000 µM.

`O[C@H]1[C@H](O)[C@@H](O)[C@@H]2O[C@@H]2[C@@H]1O` [US11826435, Compound 1.2]: the Ki was determined as 140 µM.
